In patent US12649750B2, “Macrocyclic compounds, compositions, and methods of using thereof” (Sionna Therapeutics Inc., priority 2022, dated 2026):

Experiments:
NBD1 = molecular target: T1, NBD1 (Homo sapiens, UniProt P13569); test: Aggregation analysis using differential static light scattering (DSLS), thermal stability of NBD1 (ΔTagg); assay type: binding; conditions: ΔTagg versus DMSO control, NBD1 0.2 mg/ml
T1 construct: Purified recombinant NBD1 was produced using previously described methods; made in house
Method in brief: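 Purified recombinant NBD1 at 0.2 mg/ml in 50 mM Tris-HCl, 150 mM NaCl, 5 mM MgCl2, 2 mM ATP, 2 mM DTT, pH 7.6, 1% glycerol, with compound, heated 1° C./min to 70° C. under light-scattering monitoring. Tagg taken at curve inflection; ΔTagg is compound Tagg minus mean DMSO-control Tagg, binned A (≤5° C.), B (>5-≤10° C.), C (>10-≤25° C.).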

CFTR = molecular target: T2, CFTR (Homo sapiens, UniProt P13569, DEL508-508); test: TECC24 AUC fold over DMSO @10 μM, CFTR-mediated transepithelial chloride transport in CF-HBE cells; assay type: cell-based; conditions: test agent AUC divided by DMSO vehicle AUC, primary CF-HBE cells, ΔF508 homozygous donor, 48 hours incubation
T2 construct: Primary human bronchial epithelial cells from a ΔF508 homozygous CF donor; host or cells: primary human bronchial epithelial cells (CF-HBE), ΔF508 homozygous donor
Method in brief: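 Primary ΔF508-homozygous CF bronchial epithelial cells on inserts were incubated 48 h at 36.5 °C with compound in IL-13-containing medium. VT and TEER were then recorded in current-clamp mode (pH 7.4 HEPES bath) with benzamil 10 μM, forskolin 10 μM, then CFTR inhibitor-172 20 μM. The IEQ AUC between forskolin and inhibitor was divided by vehicle AUC.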

T2 sequence (P13569 with tags, fused parts or gaps DEL508-508): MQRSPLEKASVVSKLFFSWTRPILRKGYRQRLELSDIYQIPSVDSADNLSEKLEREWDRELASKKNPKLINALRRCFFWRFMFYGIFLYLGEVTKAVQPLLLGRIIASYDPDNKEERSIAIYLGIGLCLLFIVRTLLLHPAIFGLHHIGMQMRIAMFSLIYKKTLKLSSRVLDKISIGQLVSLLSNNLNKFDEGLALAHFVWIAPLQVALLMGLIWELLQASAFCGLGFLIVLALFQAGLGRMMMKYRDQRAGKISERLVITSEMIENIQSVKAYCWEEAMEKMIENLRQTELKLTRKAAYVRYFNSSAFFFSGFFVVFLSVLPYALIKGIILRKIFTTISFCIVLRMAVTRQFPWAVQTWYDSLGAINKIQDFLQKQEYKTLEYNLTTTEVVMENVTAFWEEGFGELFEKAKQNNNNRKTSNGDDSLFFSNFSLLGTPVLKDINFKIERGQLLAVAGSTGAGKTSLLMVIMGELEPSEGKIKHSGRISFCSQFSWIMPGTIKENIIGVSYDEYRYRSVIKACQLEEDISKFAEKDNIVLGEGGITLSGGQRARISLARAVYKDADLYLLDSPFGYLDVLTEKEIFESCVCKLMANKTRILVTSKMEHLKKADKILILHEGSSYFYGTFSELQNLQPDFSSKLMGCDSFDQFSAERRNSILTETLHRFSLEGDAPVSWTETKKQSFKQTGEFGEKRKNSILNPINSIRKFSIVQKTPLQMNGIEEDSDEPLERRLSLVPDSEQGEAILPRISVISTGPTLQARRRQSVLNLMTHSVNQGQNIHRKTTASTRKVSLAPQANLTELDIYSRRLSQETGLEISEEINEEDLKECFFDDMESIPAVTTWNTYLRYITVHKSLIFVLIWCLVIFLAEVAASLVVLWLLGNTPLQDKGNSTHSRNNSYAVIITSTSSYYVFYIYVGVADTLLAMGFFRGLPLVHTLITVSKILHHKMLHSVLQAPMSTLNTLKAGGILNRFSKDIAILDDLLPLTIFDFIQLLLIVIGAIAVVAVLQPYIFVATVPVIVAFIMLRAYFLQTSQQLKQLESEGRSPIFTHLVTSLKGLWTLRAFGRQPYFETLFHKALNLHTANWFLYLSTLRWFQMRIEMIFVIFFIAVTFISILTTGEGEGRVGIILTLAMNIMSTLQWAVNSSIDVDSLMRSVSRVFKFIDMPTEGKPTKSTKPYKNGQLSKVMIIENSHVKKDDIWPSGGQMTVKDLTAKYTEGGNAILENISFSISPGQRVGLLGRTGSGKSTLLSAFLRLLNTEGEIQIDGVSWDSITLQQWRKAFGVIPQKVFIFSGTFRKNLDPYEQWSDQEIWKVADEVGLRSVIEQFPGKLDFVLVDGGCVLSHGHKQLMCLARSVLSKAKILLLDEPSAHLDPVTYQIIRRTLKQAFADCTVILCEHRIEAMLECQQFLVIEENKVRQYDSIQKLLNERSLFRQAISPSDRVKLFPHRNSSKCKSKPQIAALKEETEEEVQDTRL
T1 sequence (P13569 423-646 limits assumed): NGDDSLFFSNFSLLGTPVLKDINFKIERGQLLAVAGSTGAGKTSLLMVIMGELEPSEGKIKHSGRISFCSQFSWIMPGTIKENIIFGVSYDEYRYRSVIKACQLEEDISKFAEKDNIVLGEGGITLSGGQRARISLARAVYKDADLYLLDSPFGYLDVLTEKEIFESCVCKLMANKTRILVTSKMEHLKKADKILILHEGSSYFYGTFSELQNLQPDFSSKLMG

Structure (SMILES)	DSLS 3D (100 μM ΔT) (NBD1)	TECC (AUC, 10 μM) (CFTR)
[2H]C([2H])([2H])C1(c2cccc(CC(C)C(=O)O)c2)CCCC(C([2H])([2H])[2H])(C([2H])([2H])[2H])CS(=O)(=O)CCc2c(c(F)cc3[nH]ccc23)Oc2ccc(F)c(c2)-c2nc1nn2C (single isomer, unassigned) [Compound 9B, 3-[3-[22,28-difluoro-3-methyl-12,12-dioxo-6,10,10-tris(trideuteriomethyl)-24-oxa-12lambda6-thia-3,4,19,30-tetrazapentacyclo[23.3.1.12,5.015,23.016,20]triaconta-1(29),2(30),4,15,17,20,22,25,27-nonaen-6-yl]phenyl]-2-methyl-propanoic Acid]	A (an ΔTagg value less than or equal to 5 °C is marked “A”)	A (a TECC value less than 12 is marked “A”)
[2H]C([2H])([2H])C1(c2cccc(CC(C)C(=O)O)c2)CCCC(C)(C)CS(=O)(=O)CCc2c(c(F)cc3[nH]ccc23)Oc2ccc(F)c(c2)-c2nc1nn2C (single isomer, unassigned) [Compound 10A, 3-[3-[22,28-difluoro-3,10,10-trimethyl-12,12-dioxo-6-(trideuteriomethyl)-24-oxa-12lambda6-thia-3,4,19,30-tetrazapentacyclo[23.3.1.12,5.015,23.016,20]triaconta-1(29),2(30),4,15,17,20,22,25,27-nonaen-6-yl]phenyl]-2-methyl-propanoic Acid]	C (a value greater than 10 °C and less than or equal to 25 °C is marked “C”)	A (a TECC value less than 12 is marked “A”)
[2H]C([2H])([2H])C1(c2cccc(CC(C)C(=O)O)c2)CCCC(C)(C)CS(=O)(=O)CCc2c(c(F)cc3[nH]ccc23)Oc2ccc(F)c(c2)-c2nc1nn2C (single isomer, unassigned) [Compound 10B, 3-[3-[22,28-difluoro-3,10,10-trimethyl-12,12-dioxo-6-(trideuteriomethyl)-24-oxa-12lambda6-thia-3,4,19,30-tetrazapentacyclo[23.3.1.12,5.015,23.016,20]triaconta-1(29),2(30),4,15,17,20,22,25,27-nonaen-6-yl]phenyl]-2-methyl-propanoic Acid]	B (a value above 5 °C and less than or equal to 10 °C is marked “B”)	A (a TECC value less than 12 is marked “A”)
CC(Cc1cccc(C2(C)CCC(=O)C(C)(C)CS(=O)(=O)CCc3c(c(F)cc4[nH]ccc34)Oc3ccc(F)c(c3)-c3nc2nn3C)c1)C(=O)O (single isomer, unassigned) [Compound 11A, 3-[3-[22,28-difluoro-3,6,10,10-tetramethyl-9,12,12-trioxo-24-oxa-12lambda6-thia-3,4,19,30-tetrazapentacyclo[23.3.1.12,5.015,23.016,20]triaconta-1(29),2(30),4,15,17,20,22,25,27-nonaen-6-yl]phenyl]-2-methyl-propanoic Acid]	C (a value greater than 10 °C and less than or equal to 25 °C is marked “C”)	C (a value between 20 and 80 is marked “C”)
CC(Cc1cccc(C2(C)CCC(=O)C(C)(C)CS(=O)(=O)CCc3c(c(F)cc4[nH]ccc34)Oc3ccc(F)c(c3)-c3nc2nn3C)c1)C(=O)O (single isomer, unassigned) [Compound 11B, 3-[3-[22,28-difluoro-3,6,10,10-tetramethyl-9,12,12-trioxo-24-oxa-12lambda6-thia-3,4,19,30-tetrazapentacyclo[23.3.1.12,5.015,23.016,20]triaconta-1(29),2(30),4,15,17,20,22,25,27-nonaen-6-yl]phenyl]-2-methyl-propanoic Acid]	A (an ΔTagg value less than or equal to 5 °C is marked “A”)	A (a TECC value less than 12 is marked “A”)
Cn1nc2nc1-c1cc(ccc1F)Oc1c(F)cc3[nH]ccc3c1CCS(=O)(=O)CC1(CCCC2(C)c2cccc(CCC(=O)O)c2)CC1 (single isomer, unassigned) [Compound 12A, 3-[3-(22,28-difluoro-3,6-dimethyl-12,12-dioxo-spiro[24-oxa-12lambda6-thia-3,4,19,30-tetrazapentacyclo[23.3.1.12,5.015,23.016,20]triaconta-1(29),2(30),4,15,17,20,22,25,27-nonaene-10,1′-cyclopropane]-6-yl)phenyl]propanoic Acid]	C (a value greater than 10 °C and less than or equal to 25 °C is marked “C”)	B (a value between 12-20 is marked “B”)
Cn1nc2nc1-c1cc(ccc1F)Oc1c(F)cc3[nH]ccc3c1CCS(=O)(=O)CC1(CCCC2(C)c2cccc(CCC(=O)O)c2)CC1 (single isomer, unassigned) [Compound 12B, 3-[3-(22,28-difluoro-3,6-dimethyl-12,12-dioxo-spiro[24-oxa-12lambda6-thia-3,4,19,30-tetrazapentacyclo[23.3.1.12,5.015,23.016,20]triaconta-1(29),2(30),4,15,17,20,22,25,27-nonaene-10,1′-cyclopropane]-6-yl)phenyl]propanoic acid]	A (an ΔTagg value less than or equal to 5 °C is marked “A”)	C (a value between 20 and 80 is marked “C”)
CC(Cc1cccc(C2(C)CCCC3(CC3)CS(=O)(=O)CCc3c(c(F)cc4[nH]ccc34)Oc3ccc(F)c(c3)-c3nc2nn3C)c1)C(=O)O (single isomer, unassigned) [Compound 13A, 3-[3-(22,28-difluoro-3,6-dimethyl-12,12-dioxo-spiro[24-oxa-12lambda6-thia-3,4,19,30-tetrazapentacyclo[23.3.1.12,5.015,23.016,20]triaconta-1(29),2(30),4,15,17,20,22,25,27-nonaene-10,1′-cyclopropane]-6-yl)phenyl]-2-methyl-propanic Acid]	C (a value greater than 10 °C and less than or equal to 25 °C is marked “C”)	B (a value between 12-20 is marked “B”)
CC(Cc1cccc(C2(C)CCCC3(CC3)CS(=O)(=O)CCc3c(c(F)cc4[nH]ccc34)Oc3ccc(F)c(c3)-c3nc2nn3C)c1)C(=O)O (single isomer, unassigned) [Compound 13B, 3-[3-(22,28-difluoro-3,6-dimethyl-12,12-dioxo-spiro[24-oxa-12lambda6-thia-3,4,19,30-tetrazapentacyclo[23.3.1.12,5.015,23.016,20]triaconta-1(29),2(30),4,15,17,20,22,25,27-nonaene-10,1′-cyclopropane]-6-yl)phenyl]-2-methyl-propanic Acid]	A (an ΔTagg value less than or equal to 5 °C is marked “A”)	C (a value between 20 and 80 is marked “C”)
[2H]C([2H])([2H])C1(c2cccc(/C=C/C(=O)O)c2)CCCC(C)(C)CS(=O)(=O)CCc2c(c(F)cc3[nH]ccc23)Oc2ccc(F)c(c2)-c2nc1nn2C (single isomer, unassigned) [Compound 15A, (E)-3-[3-[22,28-difluoro-3,10,10-trimethyl-12,12-dioxo-6-(trideuteriomethyl)-24-oxa-12lambda6-thia-3,4,19,30-tetrazapentacyclo[23.3.1.12,5.015,23.016,20]triaconta-1(29),2(30),4,15,17,20,22,25,27-nonaen-6-yl]phenyl]prop-2-enoic Acid]	C (a value greater than 10 °C and less than or equal to 25 °C is marked “C”)	A (a TECC value less than 12 is marked “A”)
